Measurements published in patent US9029337B2, “Modulation of factor 7 expression” (Isis Pharmaceuticals, Inc., priority 2007, dated 2015).
e = 2'-O-(2-methoxyethyl) (MOE); d = 2'-deoxy (DNA)

How the values were obtained:
[1] = test system: platelet factor-4 (PF-4); test: Thrombus formation by real-time RT-PCR quantification of PF-4 in the FeCl3 induced venous thrombosis model; type: in vivo, mouse; settings: for PF-4 (percentage of PF-4 as compared to the PBS-treated control groups): BALB/c mice, vena cava, FeCl3
Protocol: Three groups of BALB/c mice were injected with 25 mg/kg, 37.5 mg/kg, or 50 mg/kg of ISIS 403102, administered subcutaneously twice a week for 3 weeks. Two control groups of BALB/c mice were treated with PBS, administered subcutaneously twice a week for 3 weeks. Thrombus formation was induced with FeCl3 in half of the mice while the rest of the mice were assayed for tail bleeding. Two days after receiving the last dose of ISIS 403102 or PBS, mice were anesthetized with 150 mg/kg ketamine mixed with 10 mg/kg xylazine administered by intraperitoneal injection. Thrombus formation was induced with FeCl3 in all groups of the VT mice except the first control group.
In mice undergoing FeCl3 treatment, thrombus formation was induced by applying a piece of filter paper (2×4 mm) pre-saturated with 10% FeCl3 solution directly on the vena cava. After 3 minutes of exposure, the filter paper was removed. Thirty minutes after the filter paper application, a fixed length of the vein containing the thrombus was dissected out for platelet analysis. Liver was collected for RNA analysis.
Real-time RT-PCR quantification of platelet factor-4 (PF-4) was used to quantify platelets in the vena cava as a measure of thrombus formation. Results are presented as a percentage of PF-4 in ISIS 403102, as compared to the two PBS-treated control groups. […] Therefore, antisense oligonucleotides are useful for inhibiting thrombus and clot formation.
ISIS 403102 and warfarin (Coumadin®) were evaluated in BALB/c mice. Four groups of BALB/c mice were treated with 5 mg/kg, 10 mg/kg, 20 mg/kg, or 40 mg/kg of ISIS 403102, administered subcutaneously twice a week for 3 weeks. Two days after receiving the last dose of ISIS 403102, mice were anesthetized with 150 mg/kg ketamine mixed with 10 mg/kg xylazine administered by intraperitoneal injection. Six additional groups of BALB/c mice was treated with 0.5 mg/kg, 1 mg/kg, 2 mg·kg, 3 mg/kg, 4 mg/kg, or 5 mg/kg of warfarin, administered intraperioneally daily for 6 days. Four hours after the last dose of warfarin, mice were sacrificed. A control group of BALB/c mice were treated with PBS, administered subcutaneously twice a week for 3 weeks. Two days after the last dose of PBS, mice were anesthetized with 150 mg/kg ketamine mixed with 10 mg/kg xylazine administered by intraperitoneal injection. Thrombus formation was induced with FeCl3 in groups of mice except the first control group.
Real-time RT-PCR quantification of platelet factor-4 (PF-4) was used to quantify platelets in the vena cava as a measure of thrombus formation. Results are presented as a percentage of PF-4 in ISIS 403102 or warfarin treated mice, as compared to the two PBS-treated control groups. […] Therefore, ISIS antisense oligonucleotides are useful for inhibiting thrombus and clot formation.

[2] = test system: extrinsic pathway of blood coagulation; test: Prothrombin Time (PT) in platelet poor plasma of treated BALB/c mice; type: in vivo, mouse
Protocol: Prothrombin Time (PT) and Activated Partial Thromboplastin Time (aPTT) were measured using platelet poor plasma (PPP) from mice treated with ISIS 403102. PT and aPTT values provided in Table 20 are reported as International Normalized Ratio (INR) values. INR values for PT and aPTT were determined by dividing the PT or aPTT value for the experimental group by the PT or aPTT for the PBS treated group. This ratio was then raised to the power of the International Sensitivity Index (ISI) of the tissue factor used.
Prothrombin Time (PT) and Activated Partial Thromboplastin Time (aPTT) were measured using platelet poor plasma (PPP) from mice treated with ISIS 403102. PT and aPTT values provided in Table 22 are reported as International Normalized Ratio (INR) values. INR values for PT and aPTT were determined by dividing the PT or aPTT value for the experimental group (i.e. 50 mg/kg treatment with ISIS 403102) by the PT or aPTT for the PBS treated group. This ratio was then raised to the power of the International Sensitivity Index (ISI) of the tissue factor used.
Prothrombin Time (PT) and Activated Partial Thromboplastin Time (aPTT) were measured using platelet poor plasma (PPP) from mice treated with ISIS 403102. PT and aPTT values provided in Table 24 are reported as International Normalized Ratio (INR) values. INR values for PT and aPTT were determined by dividing the PT or aPTT value for the experimental group (i.e. 50 mg/kg treatment with ISIS 403102) by the PT or aPTT for the PBS treated group. This ratio was then raised to the power of the International Sensitivity Index (ISI) of the tissue factor used.

CCATAGAACAGCTTCACAGG (sugars from the 5' end e5 d10 e5, backbone and methylation of C not given here) [ISIS 403102]
PF-4 in comparison to the PBS control ([1]; Example 14, 25, 37.5, 50 mg/kg twice a week for 3 weeks): reduction of PF-4 | PF-4 (percentage of PF-4 as compared to the PBS-treated control groups) ([1]; Example 14, 25 mg/kg s.c. twice a week for 3 weeks): 34% | PF-4 (percentage of PF-4 as compared to the PBS-treated control groups) ([1]; Example 14, 37.5 mg/kg s.c. twice a week for 3 weeks): 24% | PF-4 (percentage of PF-4 as compared to the PBS-treated control groups) ([1]; Example 14, 50 mg/kg s.c. twice a week for 3 weeks): 24% | PF-4 (percentage of PF-4 as compared to the PBS-treated control groups) ([1]; Example 16, 5 mg/kg s.c. twice a week for 3 weeks): 69% | PF-4 (percentage of PF-4 as compared to the PBS-treated control groups) ([1]; Example 16, 10 mg/kg s.c. twice a week for 3 weeks): 22% | PF-4 (percentage of PF-4 as compared to the PBS-treated control groups) ([1]; Example 16, 20 mg/kg s.c. twice a week for 3 weeks): 41% | PF-4 (percentage of PF-4 as compared to the PBS-treated control groups) ([1]; Example 16, 40 mg/kg s.c. twice a week for 3 weeks): 38% | PF-4 in comparison to the PBS control ([1]; Example 16, dosages of 5 mg/kg and higher, twice a week for 3 weeks): dose-dependent reduction of PF-4 | PT INR ([2]; BALB/c mice, 5 mg/kg, relative to PBS treated group): 1.09 | PT INR ([2]; BALB/c mice, 10 mg/kg, relative to PBS treated group): 1.33 | PT INR ([2]; BALB/c mice, 25 mg/kg, relative to PBS treated group): 2.33 | PT INR ([2]; BALB/c mice, 50 mg/kg, 1 dose, 1 day after last dose, relative to PBS group): 1.04 INR | PT INR ([2]; BALB/c mice, 50 mg/kg, 1 dose, 3 days after last dose, relative to PBS group): 1.20 INR | PT INR ([2]; BALB/c mice, 50 mg/kg, 2 doses, 3 days after last dose, relative to PBS group): 1.43 INR | PT INR ([2]; BALB/c mice, 50 mg/kg, 4 doses, 3 days after last dose, relative to PBS group): 2.13 INR | PT INR ([2]; BALB/c mice, 50 mg/kg, 6 doses, 2 days after last dose, relative to PBS group): 1.64 INR | PT INR ([2]; BALB/c mice, 50 mg/kg, 6 doses, 7 days after last dose, relative to PBS group): 2.08 INR | PT INR ([2]; BALB/c mice, 50 mg/kg, 6 doses, 14 days after last dose, relative to PBS group): 1.37 INR | PT INR ([2]; BALB/c mice, 50 mg/kg, 6 doses, 28 days after last dose, relative to PBS group): 0.96 INR | PT INR ([2]; BALB/c mice, 50 mg/kg, 6 doses, 42 days after last dose, relative to PBS group): 1.00 INR | PT INR ([2]; BALB/c mice, 50 mg/kg, 6 doses, 56 days after last dose, relative to PBS group): 0.99 INR | PT INR ([2]; BALB/c mice, 50 mg/kg, relative to PBS treated group): 4.37 | PT INR ([2]; BALB/c mice, single dose 50 mg/kg, day 1): 1.11 | PT INR ([2]; BALB/c mice, single dose 50 mg/kg, day 2): 1.64 | PT INR ([2]; BALB/c mice, single dose 50 mg/kg, day 3): 1.81 | PT INR ([2]; BALB/c mice, single dose 50 mg/kg, day 4): 1.97 | PT INR ([2]; BALB/c mice, single dose 50 mg/kg, day 6): 1.59 | PT INR ([2]; BALB/c mice, single dose 50 mg/kg, day 8): 1.55 | PT INR ([2]; BALB/c mice, single dose 50 mg/kg, day 12): 1.30 | PT INR ([2]; BALB/c mice, single dose 50 mg/kg, day 24): 1.12 | PT INR ([2]; BALB/c mice, single dose 50 mg/kg, day 56): 1.10 | PT compared to the control ([2]; Example 11, 5-50 mg/kg twice a week for 3 weeks): significantly prolonged | PT ([2]; Example 13, 6 doses, from day 7 to day 56): decreased | PT INR ([2]; single dose 50 mg/kg, day 1): 1.11 | PT INR ([2]; single dose 50 mg/kg, day 4): 1.97 | PT INR ([2]; single dose 50 mg/kg, day 56): 1.10
